Results from patent US20050113413A1, “Naphthalene-1,5-disulfonic acid salts of a substituted 4-amino-1-(pyridylmethyl)piperidine compound” (priority 2003, published 2005).

Tests used:
[1] = Chemical stability of salt forms (change in purity by HPLC upon storage); type: physicochemical; settings: 40° C. and 75% relative humidity, 7 days, HPLC Method D
Method: The chemical stability of each salt form was evaluated by determining the change in purity of the sample upon storage of the salt form at 40° C.
Prior to storage, each salt form was analyzed by HPLC (Method D) to determine sample purity and in particular, to determine the amount of the following impurities present in the sample: • A. 3-[4-{N-[7-(3-(S)-1-Carbamoyl-1,1-diphenylmethyl)pyrrolidin-1-yl)hept-1-yl]-N-(isopropyl)amino}piperidin-1-ylmethyl]-4-methoxy-1-methylpyridinium Salt (Impurity A); • B. 4-{N-[7-(3-(S)-1-Carbamoyl-1,1-diphenylmethyl)pyrrolidin-1-yl)hept-1-yl]-N-(isopropyl)amino}-1-(4-oxo-1,4-dihydropyrid-3-ylmethyl)piperidine (Impurity B).
Approximately 50-100 mg of the salt form was then placed in two heat sealed low density polyethylene bags. The bags were then placed into a stability chamber that was previously set at 40° C. and 75% relative humidity. After 7 days, the bags were removed and the contents were analyzed by HPLC.

[2] = target: T1, hM3 muscarinic receptor subtype (Homo sapiens, UniProt P20309); assay: Radioligand binding assay ([3H]NMS displacement), hM3 relative to hM2; settings: ratio of Ki values
T1 construct: expressed in transfected cells; membranes prepared
T1 sequence (P20309 whole entry): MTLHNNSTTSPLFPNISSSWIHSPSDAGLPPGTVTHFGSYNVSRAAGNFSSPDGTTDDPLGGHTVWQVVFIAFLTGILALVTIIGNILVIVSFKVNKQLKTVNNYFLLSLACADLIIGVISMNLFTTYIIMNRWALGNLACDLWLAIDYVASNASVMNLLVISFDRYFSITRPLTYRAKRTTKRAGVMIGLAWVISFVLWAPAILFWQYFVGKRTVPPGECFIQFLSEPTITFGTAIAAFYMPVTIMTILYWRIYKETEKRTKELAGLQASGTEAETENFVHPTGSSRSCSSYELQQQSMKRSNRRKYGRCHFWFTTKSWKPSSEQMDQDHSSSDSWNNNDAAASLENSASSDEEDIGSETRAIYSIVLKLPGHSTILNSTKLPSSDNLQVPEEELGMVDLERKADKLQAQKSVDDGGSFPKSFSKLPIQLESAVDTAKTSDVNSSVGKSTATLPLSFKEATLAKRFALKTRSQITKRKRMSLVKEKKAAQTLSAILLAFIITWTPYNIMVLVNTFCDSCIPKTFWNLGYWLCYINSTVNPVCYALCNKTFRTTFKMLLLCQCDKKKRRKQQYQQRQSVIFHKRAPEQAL
Method: CHO (Chinese hamster ovary) cell lines stabilely expressing cloned human hM1, hM2, hM3 and hM4 muscarinic receptor subtypes, respectively, were grown to near confluency in medium consisting of HAM's F-12 supplemented with 10% FBS (Fetal Bovine Serum) and 250 μg/mL Geneticin. The cells were grown in a 5% CO2, 37° C. incubator and lifted with dPBS+2 mM EDTA. Cells were collected by 5 minute centrifugation at 650×g, and cell pellets were either stored frozen at −80° C. or membranes were prepared immediately. For membrane preparation, cell pellets were resuspended in lysis buffer and homogenized with a Polytron PT-2100 tissue disrupter (Kinematica AG; 20 seconds×2 bursts). Crude membranes were centrifuged at 40,000×g for 15 minutes at 4° C. […] Protein concentration of the membrane suspension was determined by the method of Lowry, O. et al., (1951) Journal of Biochemistry: 193, 265. […]
Radioligand binding assays were performed in 96-well microtiter plates in a total assay volume of 100 μL. […] Filter plates were rinsed three times with wash buffer (10 mM HEPES) to remove unbound radioactivity. […] The plates were then counted in a PerkinElmer Topcount liquid scintillation counter (PerkinElmer Inc., Wellesley, Mass.). Binding data were analyzed by nonlinear regression analysis with the GraphPad Prism Software package (GraphPad Software, Inc., San Diego, Calif.) using the one-site competition model. […]

COc1ccncc1CN1CCC(N(CCCCCCCN2CC[C@@H](C(C(N)=O)(c3ccccc3)c3ccccc3)C2)C(C)C)CC1 [Example 6]
% Change in Impurity A [1]: <0.1%
% Change in Impurity B [1]: <0.1%
% Change in Purity of Salt ([1]; heat sealed polyethylene bags): 1.2%
hM3/hM2 ratio [2]: greater than 40
